Measurements as given in patent US20150202192A1, “PHARMACEUTICAL COMPOSITION FOR TREATING GASTRO-OESOPHAGEAL REFLUX DISEASE” (priority 2012, published 2015).

Columns and labels:
[1] = Clinical study in GERD patients: symptom severity (pyrosis, regurgitation) on Likert scale; type: in vivo, human; conditions: n = 10; for medium term arresting pyrosis / medium term arresting regurgitation: oral, 2 times a day for 56 days
[2] = Clinical study in GERD patients: tolerability (diarrhea, flatulence, AE necessitating discontinuation); type: in vivo, human; conditions: n = 10
Excerpt: (§1) The study included 100 patients with endoscopically negative GERD form, i.e. men and women aged 19 to 50 years old infected with H. pilori.
All the patients were divided into 10 groups of 10 persons each, of whom 5 groups (I-V) were experimental ones, while 5 groups (VI-X) were control ones.
In the experimental groups patients received orally the claimed dosage forms based on PPI and a prebiotic; Group I—a composition which contained omeprazole and lactulose as active components; Group II—a composition which contained pantoprazole and lactitol as active components; Group III—a composition which contained lansoprazole and inulin as active components; Group IV—a composition which contained rabeprazole and fructooligosaccharides as active components; Group V—a composition which contained esomeprazole and lactulose as active components.
In the control groups the patients received PPI monotherapy orally: Group VI—omeprazole; Group VII—pantoprazole; Group VIII—lansoprazole; Group IX—rabeprazole and Group X—esomeprazole.
(§2) All the patients received treatment on a similar pattern: they received the composition of a proton pump inhibitor and a prebiotic 2 times a day for 56 days.
The patients kept their diaries in which they made daily records of the time when they took drugs, recorded disease symptom severity according to Likert scale, severity of meteorism, defecation frequency, etc.
(§3) Repeated visits were made in 2 and 5 weeks after the treatment start; during the visits treatment efficacy and safety were determined, besides, it was determined if the therapy could be continued. In 56 days (8 weeks) after the therapy start, the patient came to a visit, wherein efficacy and safety of treatment was evaluated and the treatment was terminated. In 11 weeks after the treatment start, the final visit was made which included esophagogastroduodenoscopy with byopsy of the antrum and the gastric corpus for HP detection.

[3] = Clinical study in GERD patients: hydrogen breathing test for bacterial overgrowth syndrome; type: in vivo, human; conditions: n = 10
Excerpt: as §1, §2
Before and after treatment course (on Day 56) all the patients were subjected to hydrogen breathing test on the presence of bacterial overgrowth syndrome.

Helicobacter pylori = assay: Clinical study in GERD patients: biopsy of antrum and gastric corpus for Helicobacter pylori (cytology/histology, urease test); type: in vivo, human; conditions: n = 10
Excerpt: as §1, §2
In all patients, before treatment and in 4 weeks (1 month) after completion of the treatment course the biopsy of the antrum and gastric corpus was made for the presence of Helicobacter pylori. For HP diagnostics the following was used:
1. Cytological and histological biopsy of mucosa of the antrum and gastric corpus obtained in gastroscopy.
2. Urease test, in which the mucous membrane biopsy material obtained from the antrum and the gastric corpus were examined for the presence of urease, an enzyme specific for Helicobacter pylori.
as §3

[4] = Clinical study in GERD patients: quality of life by Visual Analog Scale; type: in vivo, human; conditions: n = 10
intestinal bacteria = conditions: humans, 3 g daily dose; cited from earlier work
[5] = after treatment (oral, 2 times a day for 56 days)
[6] = after treatment, biopsy after completion of the 56-day course

Compound | Intensity pyrosis on scale Likert [1, 5] | Intensity regurgitation on scale Likert [1, 5] | Intensity pyrosis on scale Likert ([1]; before treatment) | Intensity regurgitation on scale Likert ([1]; before treatment) | medium term arresting pyrosis [1] | medium term arresting regurgitation [1] | AE, necessitating discontinuation of therapy ([2]; after treatment (56 days)) | Presence diarrhea ([2]; after treatment (56 days)) | Presence flatulence ([2]; after treatment (56 days)) | Presence diarrhea ([2]; before treatment) | Presence flatulence ([2]; before treatment) | Presence bacterial overgrowth syndrome ([3]; after treatment (Day 56)) | Presence bacterial overgrowth syndrome ([3]; before treatment) | release Helicobacter pylori in the antrum (Helicobacter pylori; [6]) | release Helicobacter pylori in the stomach (Helicobacter pylori; [6]) | release Helicobacter pylori in the antrum (Helicobacter pylori; before treatment) | release Helicobacter pylori in the stomach (Helicobacter pylori; before treatment) | Quality of life no VAC ([4]; after treatment (56 days)) | Quality of life no VAC ([4]; before treatment) | other results
COc1ccc2nc([S@@+]([O-])Cc3ncc(C)c(OC)c3C)[nH]c2c1 [group X, esomeprazole] | 1.1 ± 0.2 ball | 1.3 ± 0.1 ball | 3.5 ± 0.9 ball | 3.6 ± 1.1 ball | 7.7 ± 3.1 days | 7.2 ± 3.1 days | 0% | 20% | 60% | 0% | 10% | 50% | 10% | 100% | 80% | 100% | 20% | 87.6 ± 21.2 MM | 58.1 ± 18.9 MM | –
COCCCOc1ccnc(C[S+]([O-])c2nc3ccccc3[nH]2)c1C (stereo not shown) [group IX, rabeprazole] | 1.2 ± 0.6 ball | 1.1 ± 0.3 ball | 3.6 ± 0.7 ball | 3.5 ± 1.1 ball | 7.8 ± 3.5 days | 7.5 ± 3.4 days | 0% | 20% | 50% | 0% | 20% | 40% | 10% | 100% | 80% | 100% | 20% | 87.3 ± 19.5 MM | 58.5 ± 20.2 MM | –
COc1ccc2[nH]c([S+]([O-])Cc3ncc(C)c(OC)c3C)nc2c1 (stereo not shown) [group VI, omeprazole] | 1.2 ± 0.6 ball | 1.1 ± 0.3 ball | 3.6 ± 0.8 ball | 3.5 ± 1.2 ball | 7.8 ± 3.5 days | 7.5 ± 3.4 days | 0% | 20% | 60% | 0% | 20% | 50% | 10% | 100% | 70% | 100% | 20% | 87.6 ± 21.2 MM | 58.1 ± 18.9 MM | –
COc1ccnc(C[S+]([O-])c2nc3ccc(OC(F)F)cc3[nH]2)c1OC (stereo not shown) [group VII, pantoprazole] | 1.0 ± 0.4 ball | 1.2 ± 0.3 ball | 3.3 ± 0.5 ball | 3.4 ± 1.1 ball | 7.5 ± 3.1 days | 7.6 ± 3.4 days | 0% | 20% | 50% | 0% | 10% | 40% | 10% | 100% | 80% | 100% | 20% | 87.6 ± 21.2 MM | 58.1 ± 18.9 MM | –
Cc1c(OCC(F)(F)F)ccnc1C[S+]([O-])c1nc2ccccc2[nH]1 (stereo not shown) [group VIII, lansoprazole] | 1.1 ± 0.5 ball | 1.1 ± 0.2 ball | 3.4 ± 0.7 ball | 3.6 ± 1.1 ball | 7.8 ± 3.3 days | 7.7 ± 3.2 days | 0% | 20% | 60% | 0% | 10% | 50% | 10% | 100% | 70% | 100% | 20% | 84.2 ± 21.5 MM | 57.4 ± 17.5 MM | –
OC[C@H]1O[C@@H](O[C@@H]2[C@@H](CO)OC(O)(CO)[C@H]2O)[C@H](O)[C@@H](O)[C@H]1O (mixture of isomers) [lactulose] | – | – | – | – | – | – | – | – | – | – | – | – | – | – | – | – | – | – | – | number of Bifidobacteria and Lactobacillus (intestinal bacteria): significant increase; number of Clostridium perfringens, Bacteroides, Enterobacteriaceae, and Streptococcus (intestinal bacteria): decrease
